Experimental data as given in patent US7417062B2, “Substituted arylamides” (ChemoCentryx, Inc., priority 2004, dated 2008).
Read-outs that look alike come from different tables or passages of the source.

Molecular target: T1, CCXCKR2 receptor (Homo sapiens, UniProt P25106)
T1 construct: host or cells: MCF-7 (endogenous) and/or MDA-MB-435S transfected with hRDC1 in pcDNA3.1(+)
Test: Displacement of 125I-labeled SDF-1 from the CCXCKR2 receptor (radioligand binding, determination of IC50 values)
Procedure: The ability of the compounds to displace the labeled chemokine from the CCXCKR2 receptor sites at multiple concentrations was then determined with the screening process.
Compounds that were deemed effective modulators were able to displace at least 50% of the SDF-1 from the CCXCKR2 receptor at concentrations at or below 10 micromolar (μM) and more preferably at concentrations at or below 2 micromolar. At present, especially preferred compounds can displace at least 50% of the SDF-1 from the CCXCKR2 receptor at concentrations at or below 500 nM. Exemplary compounds that met these criteria are reproduced in Table B below. All compounds were prepared as described in the Examples above, or by related methods substituting readily available starting materials.
Reagents and Cells. ^125I-labeled SDF-1 was purchased from Perkin-Elmer Life Sciences, Inc. (Boston, Mass.). The MCF-7 (adenocarcinoma; mammary gland) cell line was obtained from the American Type Culture Collection (Manassas, Va.) or and was cultured in DMEM (Mediatech, Herndon, Va.) supplemented with 10% fetal bovine serum (FBS) (HyClone Logan, Utah) and bovine insulin (0.01 mg/mL) (Sigma, St. Louis, Mo.) at 37° C. in a humidified incubator at a 5% CO2/air mixture. CCXCKR2 transfected MDA-MB-435S were produced as described below. MDA-MB-435S human breast cancer line, was purchased from ATCC, and cultured in DMEM/10% FBS medium. The complete coding sequence of the gene encoding CCXCKR2 (a.k.a.CXCR7, hRDC1), was isolated from MCF-7 cells using μMACs mRNA isolation kit (Miltenyi Biotec, Auburn, Calif.). DNA contamination was removed by DNase digestion via RNeasy columns (Qiagen, Inc., Valencia, Calif.) and cDNA was generated using GeneAmp RNA PCR Core Kit (Applied Biosystems, Foster City, Calif.). PCR of cDNA samples was performed using Taq PCR Master Mix kit (Qiagen, Inc.) and hRDC1 primers harboring 5′ and 3′ Not I sites (hRDC1F 5′-[…]-3′ (SEQ ID NO:1), hRDC1R 5′-[…]-3′ (SEQ ID NO:2)) Not I digested PCR product was ligated into Not I digested pcDNA3.1(+)(Invitrogen, Carlsbad, Calif.) and screened for orientation and sequence confirmed. Plasmid DNA was then isolated from overnight bacterial cultures by Maxiprep (Qiagen, Inc.). Plasmid DNA (10 μg) was added to MDA-MB-435s cells and cells were electroporated (0.22 kV, 960 uF) via Gene Pulser (Biorad laboratories, Hercules, Calif.). 48 hr post-electroporation, cells were transferred to selection medium (1000 ug/ml G418).
Binding Analysis. Target compounds were tested to determine their ability to bind with CCXCKR2 sites on MCF-7 and/or MDA-MB-435S cells. Efficiency-maximized radioligand binding using filtration protocols as described in Dairaghi D J, et al., HHV8-encoded vMIP-I selectively engages chemokine receptor CCR5. Agonist and antagonist profiles of viral chemokines., J. Biol. Chem. 1999 Jul. 30; 274(31): 21569-74 and Gosling J, et al., Cutting edge: identification of a novel chemokine receptor that binds dendritic cell-and T cell-active chemokines including ELC, SLC, and TECK., J. Immunol. 2000 Mar. 15; 164(6):2851-6 was used.
In these assays, MCF-7 and/or MDA-MB-435S cells were interrogated with the target compounds and the ability of these compounds to displace ^125I radiolabeled SDF-1 was assessed using the protocol described in Dairaghi and Gosling. The target compounds were added to the plate to the indicated concentration and were then incubated with cells followed by the addition of radiolabeled chemokine (^125I SDF-1) for 3 hr at 4° C. in the following binding medium (25 mM HEPES, 140 mM NaCl, 1 mM CaCl2, 5 mM MgCl2 and 0.2% bovine serum albumin, adjusted to pH 7.1). All assays were then incubated for 3 hrs at 4° C. with gentle agitation. Following incubation in all binding assays, reactions were aspirated onto PEI-treated GF/B glass filters (Packard) using a cell harvester (Packard) and washed twice (25 mM HEPES, 500 mM NaCl, 1 mM CaCl2, 5 mM MgCl2, adjusted to pH 7.1). […]

[1] = MCF-7 and/or MDA-MB-435S cells expressing CCXCKR2, 125I SDF-1, 3 hr at 4° C., read-out: Activity (ability to displace 125I SDF-1 from CCXCKR2)

T1 sequence (P25106 whole entry): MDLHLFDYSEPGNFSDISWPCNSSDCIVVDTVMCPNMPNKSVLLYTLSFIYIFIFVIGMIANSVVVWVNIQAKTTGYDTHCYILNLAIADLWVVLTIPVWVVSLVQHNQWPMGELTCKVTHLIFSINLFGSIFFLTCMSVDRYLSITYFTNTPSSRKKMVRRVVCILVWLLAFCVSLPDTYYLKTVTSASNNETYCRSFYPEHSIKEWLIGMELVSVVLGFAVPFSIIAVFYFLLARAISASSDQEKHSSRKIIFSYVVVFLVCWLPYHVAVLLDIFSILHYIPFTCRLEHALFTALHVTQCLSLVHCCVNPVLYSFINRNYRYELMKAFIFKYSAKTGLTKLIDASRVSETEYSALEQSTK

Row | IC50 [1] [nM] | Compound | IC50 [nM]
1 | < 500 | COc1cc(C(=O)N(CCC2CCCN2C)Cc2ccc3ccccc3c2)cc(OC)c1OC (stereo not drawn) [Example 5, 3,4,5-Trimethoxy-N-[2-(1-methyl-pyrrolidin-2-yl)-ethyl]-N-naphthalen-2ylmethyl-benzamide] | 
2 | < 500 | COc1cc(C(=O)N(CCCN2CCCCC2C)c2cccc(-c3ccccc3)c2)cc(OC)c1OC (stereo not drawn) [Example 17, N-Biphenyl-3-yl-3,4,5-trimethoxy-N-[3-(2-methyl-piperidin-1-yl)-propyl]-benzamide] | 
3 | < 10000 | COc1ccc(C(=O)N(C[C@@H]2CCCN2CC2CC2)c2cccc(-c3cccc(C#N)c3)c2)cc1OC [Example 34, N-(3′-Cyano-biphenyl-3-yl)-(S)—N-(1-cyclopropylmethyl-pyrrolidin-2-ylmethyl)-3,4-dimethoxy-benzamide] | 
4 | < 2000 | COc1ccc(C(=O)N(Cc2cnc3ccccc3c2)C[C@@H]2CCCN2CC2CCCCC2)cc1OC [Example 2, N—(S)-(1-Cyclohexylmethyl-pyrrolidin-2-ylmethyl)-3,4-dimethoxy-N-quinolin-3-ylmethyl-benzamide] | 
5 | < 2000 | COc1ccc(C(=O)N(C[C@@H]2CCCN2CC2CC2)c2cccc(-c3cccnc3)c2)cc1OC [Example 35, (S)—N-(1-Cyclopropylmethyl-pyrrolidin-2-ylmethyl)-3,4-dimethoxy-N-(3-pyridin-3-yl-phenyl)-benzamide] | 
6 | < 10000 | CCOC(=O)c1ccc(-c2cccc(N(C[C@@H]3CCCN3CC3CC3)C(=O)c3ccc(OC)c(OC)c3)c2)cc1 [Example 36, (S)-3′-[(1-Cyclopropylmethyl-pyrrolidin-2-ylmethyl)-(3,4-dimethoxy-benzoyl)-amino]-biphenyl-4-carboxylic acid ethyl ester] | 
7 | < 500 | COc1ccc(C(=O)N(C[C@@H]2CCCN2CC2CCCCC2)c2cccc(-c3ccccc3)c2)cc1OC [Example 24, N-biphenyl-3-yl-(S)—N-(1-cyclohexylmethyl-pyrrolidin-2-ylmethyl)-3,4-dimethoxy-benzamide] | 
8 | < 500 | COc1cc(C(=O)N(C[C@@H]2CCCN2CC2CCCCC2)c2cccc(-c3ccccc3)c2)ccc1OC(F)F [Example 33, N-biphenyl-3-yl-(S)—N-(1-cyclohexylmethyl-pyrrolidin-2-ylmethyl)-4-difluoromethoxy-3-methoxy-benzamide] | 
9 | < 10000 | COc1ccc(C(=O)N(C[C@@H]2CCCN2CC2CC2)c2cccc(-c3ccc(N(C)C)cc3)c2)cc1OC [Example 37, (S)—N-(1-Cyclopropylmethyl-pyrrolidin-2-ylmethyl)-N-(4′-dimethylamino-biphenyl-3-yl)-3,4-dimethoxy-benzamide] | 

Continued, compound first:

Row | Compound | IC50 [1] [nM] | IC50 [nM]
10 | COc1cc(C(=O)N(Cc2cc3ccccc3cn2)C[C@@H]2CCCN2CC2CNC2)cc2c1OC(C)(C)O2 [Example 39, 7-Methoxy-2,2-dimethyl-benzo[1,3]dioxole-5-carboxylic acid ((S)-1-azetidin-3-ylmethyl-pyrrolidin-2-ylmethyl)-isoquinolin-3-ylmethyl-amide] | < 2000 | 
11 | COc1cc(C(=O)N(Cc2ccc3cc(Cl)ccc3n2)C[C@@H]2C[C@@H]3CCCC[C@@H]3N2)cc2c1OC(C)(C)O2 [Example 73, 7-Methoxy-2,2-dimethyl-benzo[1,3]dioxole-5-carboxylic acid (6-chloro-quinolin-2-ylmethyl)-[(2S,3aS,7aS)-1-(octahydro-indol-2-yl)methyl]-amide] | < 500 | 
12 | COc1cc(C(=O)N(Cc2nc(-c3ccccc3)sc2Cl)C[C@@H]2C[C@@H]3CCCC[C@@H]3N2)cc2c1OC(C)(C)O2 [Example 79, 7-Methoxy-2,2-dimethyl-benzo[1,3]dioxole-5-carboxylic acid (5-chloro-2-phenyl-thiazol-4-ylmethyl)-[(2S,3aS,7 aS)-1-(octahydro-indol-2-yl)methyl]-amide] | < 500 | 
13 | COc1cc(C(=O)N(Cc2nc(-c3ccccc3)cs2)C[C@@H]2CCCN2C2CCC2)cc2c1OC(C)(C)O2 [Example 50, 7-Methoxy-2,2-dimethyl-benzo[1,3]dioxole-5-carboxylic acid ((S)-1-cyclobutyl-pyrrolidin-2-ylmethyl)-(4-phenyl-thiazol-2-ylmethyl)-amide] | < 500 | 
14 | COc1cc(C(=O)N(Cc2cc3ccccc3cn2)C[C@@H]2CCCN2C[C@@H]2C[C@H]3CC[C@@H](C2)N3)cc2c1OC(C)(C)O2 [Example 63, 7-Methoxy-2,2-dimethyl-benzo[1,3]dioxole-5-carboxylic acid {(S)-1-[(1S,3S,5R)-1-(8-aza-bicyclo[3.2.1]oct-3-yl)methyl]-pyrrolidin-2-ylmethyl}-isoquinolin-3-ylmethyl-amide] |  | < 500
15 | COc1cc(C(=O)N(CCC2CCCN2C)Cc2cc3ccccc3s2)cc(OC)c1OC (stereo not drawn) [Example 8, N-Benzo[b]thiophen-2-ylmethyl-3,4,5-trimethoxy-N-[2-(1-methyl-pyrrolidin-2-yl)-ethyl]-benzamide] | < 500 | 
16 | COc1cc(C(=O)N(Cc2cnc3ccccc3n2)C[C@@H]2CCCN2C2CCC2)cc2c1OC(C)(C)O2 [Example 67, 7-Methoxy-2,2-dimethyl-benzo[1,3]dioxole-5-carboxylic acid ((S)-1-cyclobutyl-pyrrolidin-2-ylmethyl)-quinoxalin-2-ylmethyl-amide] | < 2000 | 
17 | COc1cc(C(=O)N(Cc2cc3ccccc3o2)C[C@@H]2CCCN2C2CCC2)cc2c1OC(C)(C)O2 [Example 58, 7-Methoxy-2,2-dimethyl-benzo[1,3]dioxole-5-carboxylic acid benzofuran-2-ylmethyl-((S)-1-cyclobutyl-pyrrolidin-2-ylmethyl)-amide] | < 500 | 
18 | COc1cc(C(=O)N(CCC2CCCN2C)Cc2csc3ccccc23)cc(OC)c1OC (stereo not drawn) [Example 12, N-Benzo[b]thiophen-3-ylmethyl-3,4,5-trimethoxy-N-[2-(1-methyl-pyrrolidin-2-yl)-ethyl]-benzamide] | < 2000 | 
19 | COc1cc(C(=O)N(CCC2CCCN2C)Cc2ccc3ccccc3n2)cc(OC)c1OC (stereo not drawn) [Example 11] | < 500 | 
20 | COc1cc(C(=O)N(Cc2cc3ccccc3cn2)C[C@@H]2CCCN2C2CCC2)cc2c1OC(C)(C)O2 [Example 62, 7-Methoxy-2,2-dimethyl-benzo[1,3]dioxole-5-carboxylic acid ((S)-1-cyclobutyl-pyrrolidin-2-ylmethyl)-isoquinolin-3-ylmethyl-amide] | < 500 | 
21 | COc1cc(C(=O)N(CCC2CCCN2C)Cc2cc3ccccc3n2C)cc(OC)c1OC (stereo not drawn) | < 500 | 
22 | COc1cc(C(=O)N(Cc2csc(-c3ccccc3)n2)C[C@@H]2CCCN2)cc2c1OC(C)(C)O2 [Example 55, 7-Methoxy-2,2-dimethyl-benzo [1,3]dioxole-5-carboxylic acid (2-phenyl-thiazol-4-ylmethyl)-pyrrolidin-2-ylmethyl-amide] | < 500 | 
23 | COc1cc(C(=O)N(Cc2cnc3ccccc3c2)C[C@@H]2CCCN2C2CCC2)cc2c1OC(C)(C)O2 | < 10000 | 
24 | COc1cc(C(=O)N(CCC2CCCN2C)Cc2nc3ccccc3n2C)cc(OC)c1OC (stereo not drawn) [Example 14, 3,4,5-Trimethoxy-N-(1-methyl-1H-benzoimidazol-2-ylmethyl)-N-[2-(1-methyl-pyrrolidin-2-yl)-ethyl]-benzamide] | < 10000 | 
